Test results reported in ChEMBL document CHEMBL4387741, “Optimization of novel reversible Bruton's tyrosine kinase inhibitors identified using Tethering-fragment-based screens” (Bioorg Med Chem, 2019).

Experiments:
[1] = target: Insulin receptor (Homo sapiens) (UniProt P06213); assay: Inhibition of wild-type human partial length INSR (P997 to E1318 residues) expressed in mammalian expression system at 1 uM by Kinomescan method relative to control
[2] = target: Serine/threonine-protein kinase pim-1 (Homo sapiens) (UniProt P11309); assay: Inhibition of wild-type human partial length PIM1 (A15 to K313 residues) expressed in bacterial expression system at 1 uM by Kinomescan method relative to control
[3] = system: Epidermal growth factor receptor (Homo sapiens), P00533 [T790M]; assay: Inhibition of human partial length EGFR T790M mutant (R669 to G1022 residues) expressed in mammalian expression system at 1 uM by Kinomescan method relative to control
[4] = target: Cyclin-dependent kinase 16 (Homo sapiens) (UniProt Q00536); assay: Inhibition of wild-type human partial length PCTK1 (G160 to A474 residues) expressed in mammalian expression system at 1 uM by Kinomescan method relative to control
[5] = target: Phosphatidylinositol 4-phosphate 5-kinase type-1 gamma (Homo sapiens) (UniProt O60331); assay: Inhibition of wild-type human partial length PIP5K1C (M1 to T668 residues) expressed in mammalian expression system at 1 uM by Kinomescan method relative to control
[6] = target: 3-phosphoinositide-dependent protein kinase 1 (Homo sapiens) (UniProt O15530); assay: Inhibition of wild-type human full length PDPK1 (M1 to Q556 residues) expressed in bacterial expression system at 1 uM by Kinomescan method relative to control
[7] = system: Tyrosine-protein kinase ABL1 (Homo sapiens), P00519 [F317L]; assay: Inhibition of human non-phosphorylated ABL1 F317L mutant (S229 to K512 residues) expressed in mammalian expression system at 1 uM by Kinomescan method relative to control
[8] = target: Cyclin-dependent kinase 8 (Homo sapiens) (UniProt P49336); assay: Inhibition of wild-type human partial length CDK8 (M1 to T360 residues) expressed in bacterial expression system at 1 uM by Kinomescan method relative to control
[9] = system: Tyrosine-protein kinase ABL1 (Homo sapiens), P00519 [E255K]; assay: Inhibition of human phosphorylated ABL1 E255K mutant (S229 to K512 residues) expressed in mammalian expression system at 1 uM by Kinomescan method relative to control
[10] = target: Tyrosine-protein kinase JAK3 (Homo sapiens) (UniProt P52333); assay: Inhibition of wild-type human partial length JAK3 JH1 catalytic domain (I781 to S1124 residues) expressed in mammalian expression system at 1 uM by Kinomescan method relative to control
[11] = target: Tyrosine-protein kinase Yes (Homo sapiens) (UniProt P07947); assay: Inhibition of wild-type human partial length YES (T257 to L543 residues) expressed in bacterial expression system at 1 uM by Kinomescan method relative to control
[12] = target: Aurora kinase A (Homo sapiens) (UniProt O14965); assay: Inhibition of wild-type human partial length AURKA (E122 to K401 residues) expressed in mammalian expression system at 1 uM by Kinomescan method relative to control
[13] = system: Mast/stem cell growth factor receptor Kit (Homo sapiens), P10721 [D816H]; assay: Inhibition of human partial length KIT D816H mutant (I571 to D952 residues) expressed in mammalian expression system at 1 uM by Kinomescan method relative to control
[14] = target: Casein kinase II subunit alpha (Homo sapiens) (UniProt P68400); assay: Inhibition of wild-type human full length CSNK2A1 (M1 to Q391 residues) expressed in mammalian expression system at 1 uM by Kinomescan method relative to control
[15] = target: Platelet-derived growth factor receptor alpha (Homo sapiens) (UniProt P16234); assay: Inhibition of wild-type human partial length PDGFRA (V575 to D1002 residues) expressed in mammalian expression system at 10 uM by Kinomescan method relative to control
[16] = target: Discoidin domain-containing receptor 2 (Homo sapiens) (UniProt Q16832); assay: Inhibition of wild-type human partial length DDR2 (V555 to E855 residues) expressed in mammalian expression system at 10 uM by Kinomescan method relative to control
[17] = target: Eukaryotic translation initiation factor 2-alpha kinase 1 (Homo sapiens) (UniProt Q9BQI3); assay: Inhibition of wild-type human partial length EIF2AK1 (Q147 to E603 residues) expressed in mammalian expression system at 10 uM by Kinomescan method relative to control
[18] = target: Fibroblast growth factor receptor 2 (Homo sapiens) (UniProt P21802); assay: Inhibition of wild-type human partial length FGFR2 (D457 to E769 residues) expressed in bacterial expression system at 10 uM by Kinomescan method relative to control
[19] = target: Hormonally up-regulated neu tumor-associated kinase (Homo sapiens) (UniProt P57058); assay: Inhibition of wild-type human partial length HUNK (A31 to K354 residues) expressed in bacterial expression system at 10 uM by Kinomescan method relative to control
[20] = target: NUAK family SNF1-like kinase 1 (Homo sapiens) (UniProt O60285); assay: Inhibition of wild-type human partial length ARK5 (E25 to I332 residues) expressed in bacterial expression system at 10 uM by Kinomescan method relative to control
[21] = target: Dual serine/threonine and tyrosine protein kinase (Homo sapiens) (UniProt Q6XUX3); assay: Inhibition of wild-type human full length RIPK5 (M1 to T929 residues) expressed in mammalian expression system at 10 uM by Kinomescan method relative to control
[22] = target: Ephrin type-B receptor 3 (Homo sapiens) (UniProt P54753); assay: Inhibition of wild-type human partial length EPHB3 (Q599 to T928 residues) expressed in bacterial expression system at 10 uM by Kinomescan method relative to control
[23] = system: Mast/stem cell growth factor receptor Kit (Homo sapiens), P10721 [A829P]; assay: Inhibition of human partial length KIT A829P mutant (I571 to D952 residues) expressed in mammalian expression system at 10 uM by Kinomescan method relative to control
[24] = target: Cyclin-dependent kinase 17 (Homo sapiens) (UniProt Q00537); assay: Inhibition of wild-type human full length PCTK2 (M1 to F523 residues) expressed in bacterial expression system at 10 uM by Kinomescan method relative to control
[25] = system: Epidermal growth factor receptor (Homo sapiens), P00533 [UNDEFINED MUTATION]; assay: Inhibition of human partial length EGFR L747-S752del/P753S mutant expressed in bacterial expression system at 10 uM by Kinomescan method relative to control
[26] = target: Casein kinase I isoform gamma-3 (Homo sapiens) (UniProt Q9Y6M4); assay: Inhibition of wild-type human full length CSNK1G3 (M1 to K447 residues) expressed in bacterial expression system at 10 uM by Kinomescan method relative to control
[27] = target: Ankyrin repeat and protein kinase domain-containing protein 1 (Homo sapiens) (UniProt Q8NFD2); assay: Inhibition of wild-type human partial length ANKK1 (M1 to A305 residues) expressed in mammalian expression system at 10 uM by Kinomescan method relative to control

For `O=C(Nc1cccc([C@@H]2CN(c3ncnc4[nH]ccc34)CCN2CCO)c1)Nc1c(F)cccc1N1CCCC1`, the inhibition [1] was 100%, the inhibition [2] was 86% and the inhibition [3] was 96%. It also gave an inhibition [4] of 80%, an inhibition [5] of 70% and an inhibition [6] of 34%. For the same compound, the inhibition [7] was 100%, the inhibition [8] was 84% and the inhibition [9] was 43%. It also gave an inhibition [10] of 4.3%, an inhibition [11] of 67% and an inhibition [12] of 3.6%. For the same compound, the inhibition [13] was 18% and the inhibition [14] was 93%.

Work on `O=C(Nc1cccc([C@H]2CCCN(c3ncnc4[nH]ccc34)C2)c1)Nc1ccccc1N1CCCC1` yielded an inhibition [15] of 0.6%, an inhibition [16] of 0.55% and an inhibition [17] of 100%. It also gave an inhibition [18] of 24%, an inhibition [19] of 100% and an inhibition [20] of 25%. It also gave an inhibition [21] of 49%, an inhibition [22] of 100% and an inhibition [23] of 15%. It also gave an inhibition [24] of 97%, an inhibition [25] of 87% and an inhibition [26] of 99%. The inhibition [27] was 96%.
